Source: BindingDB's records for doi:10.1124/mol.64.6.1342 (University of Pittsburgh, 2003)
Values joined by “and” are separate entries in the source; they are usually repeats but may differ in a detail not shown here. Equal entries are not always repeated.

Assays:
[1] = biological target: Protein kinase C alpha type (Homo sapiens, UniProt P17252)
[2] = biological target: Protein kinase C delta type (Homo sapiens, UniProt Q05655)
Chain of Protein kinase C delta type (Q05655 whole entry): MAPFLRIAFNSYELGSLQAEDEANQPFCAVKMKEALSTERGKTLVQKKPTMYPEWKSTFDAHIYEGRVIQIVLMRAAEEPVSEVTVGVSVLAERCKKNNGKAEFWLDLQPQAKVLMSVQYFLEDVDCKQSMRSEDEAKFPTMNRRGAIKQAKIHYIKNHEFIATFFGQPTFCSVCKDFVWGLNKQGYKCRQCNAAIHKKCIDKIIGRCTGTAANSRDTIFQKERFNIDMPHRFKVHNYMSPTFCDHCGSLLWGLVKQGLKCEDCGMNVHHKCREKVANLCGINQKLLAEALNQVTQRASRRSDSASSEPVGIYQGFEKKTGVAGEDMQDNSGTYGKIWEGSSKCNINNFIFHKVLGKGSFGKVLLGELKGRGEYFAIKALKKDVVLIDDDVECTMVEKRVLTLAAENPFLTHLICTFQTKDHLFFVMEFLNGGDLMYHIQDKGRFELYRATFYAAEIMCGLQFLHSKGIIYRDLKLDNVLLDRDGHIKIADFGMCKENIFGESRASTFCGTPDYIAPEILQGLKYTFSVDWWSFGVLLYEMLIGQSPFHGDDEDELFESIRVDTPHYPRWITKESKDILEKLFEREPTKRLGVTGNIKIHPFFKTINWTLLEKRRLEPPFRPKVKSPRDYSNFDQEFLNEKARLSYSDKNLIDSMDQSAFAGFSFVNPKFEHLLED

Structure (SMILES)	Ki [1]	Ki [2]
CC(C)C1C(=O)NC(CO)Cc2c[nH]c3cccc(c23)N1C (stereo not drawn) [(-)-Indolactam V (low PS)]	12.6 nM	8.16 nM and 43.1 nM
CCC(C)(C/C=C1/CC(CO)(COC(=O)CC(C)(CC)C(C)C)OC1=O)C(C)C (stereo not drawn) [B8-DL-B8 (low PS)]	2.9 nM and 3.57 nM	11.6 nM and 10 nM
CCCCCCCCc1ccc2c3c(c[nH]c13)CC(CO)NC(=O)C(C(C)C)N2C (configuration not stated) [CAS_159320]	0.53 nM	0.77 nM
C=C(C)C12OC3(c4ccccc4)OC1C1C4OC4(CO)C(O)C4(O)C(=O)C(C)=CC4C1(O3)C(C)C2OC(=O)C=CC=Cc1ccccc1 (configuration not stated) [NSC_4179]	0.27 nM	0.55 nM
CC1=CC2C(O)(CC(CO)=CC3C4C(C)(C)C4(OC(=O)Cc4ccccc4)CC(C)C32O)C1=O (configuration not stated) [NSC_105100]	0.14 nM	0.56 nM
C=C(C)C12OC3(c4ccccc4)OC1C1C4OC4(CO)C(O)C4(O)C(=O)C(C)=CC4C1(O3)C(C)C2OC(=O)C=Cc1ccccc1 (configuration not stated) [NSC_6437389]	0.29 nM and 0.22 nM	1.31 nM and 10.7 nM
